Test results as given in patent US10227357B2, “Compounds and methods for kinase modulation, and indications therefor” (Plexxikon Inc., priority 2012, dated 2019).

Assays:
c-kit mutant D816V = biological target: T1, c-kit mutant D816V (Homo sapiens, UniProt P10721, D816V/DEL694-753); assay: c-Kit mutant D816V biochemical assay, AlphaScreen; conditions: c-kit D816V biochemical inhibitory activity; read-out: Biochemical activity (IC50 μM) Kit D816V
T1 construct: residues 551-934, kinase insertion domain residues 694-753 deleted; 6x-histidine (N); made in house; host or cells: E. coli Arctic Express (DE3) RIL (Stratagene)
Procedure, shortened: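 Eight-point, threefold compound series incubated 30 min at room temperature with E. coli-produced D816V kinase, 10 μM ATP, Mg2+/Mn2+ HEPES buffer pH 7.2 and 5% DMSO. After EDTA stop, streptavidin and anti-phosphotyrosine (PY20) AlphaScreen beads gave the read-out, and IC50 was fitted from the concentration–signal curve.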

c-kit kinase = biological target: T2, c-kit kinase (Homo sapiens, UniProt P10721); assay: c-Kit biochemical assay, AlphaScreen, 10 μM ATP; conditions: c-kit biochemical inhibitory activity; read-out: Biochemical activity (IC50 μM) Kit
T2 construct: The c-kit (or kinase domain thereof) is an active kinase in AlphaScreen; poly-Histidine tag (in-house protein only) (cleaved yes); host or cells: E. coli BL21(DE3)RIL, co-expressed with PTP1B
Procedure, shortened: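 His-tagged c-Kit expressed in E. coli with co-expressed PTP1B (dephosphorylated), tag removed; 0.1 ng per reaction with biotinylated-peptide substrate in 50 mM HEPES pH 7.2, 5 mM MgCl2, 5 mM MnCl2, 5% DMSO, 10 μM ATP, 1 h at room temperature. Phosphorylation detected by AlphaScreen (streptavidin donor, PY20 acceptor beads); IC50 from 8-point 1:3 dilution series.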

T2 sequence (P10721 26-976): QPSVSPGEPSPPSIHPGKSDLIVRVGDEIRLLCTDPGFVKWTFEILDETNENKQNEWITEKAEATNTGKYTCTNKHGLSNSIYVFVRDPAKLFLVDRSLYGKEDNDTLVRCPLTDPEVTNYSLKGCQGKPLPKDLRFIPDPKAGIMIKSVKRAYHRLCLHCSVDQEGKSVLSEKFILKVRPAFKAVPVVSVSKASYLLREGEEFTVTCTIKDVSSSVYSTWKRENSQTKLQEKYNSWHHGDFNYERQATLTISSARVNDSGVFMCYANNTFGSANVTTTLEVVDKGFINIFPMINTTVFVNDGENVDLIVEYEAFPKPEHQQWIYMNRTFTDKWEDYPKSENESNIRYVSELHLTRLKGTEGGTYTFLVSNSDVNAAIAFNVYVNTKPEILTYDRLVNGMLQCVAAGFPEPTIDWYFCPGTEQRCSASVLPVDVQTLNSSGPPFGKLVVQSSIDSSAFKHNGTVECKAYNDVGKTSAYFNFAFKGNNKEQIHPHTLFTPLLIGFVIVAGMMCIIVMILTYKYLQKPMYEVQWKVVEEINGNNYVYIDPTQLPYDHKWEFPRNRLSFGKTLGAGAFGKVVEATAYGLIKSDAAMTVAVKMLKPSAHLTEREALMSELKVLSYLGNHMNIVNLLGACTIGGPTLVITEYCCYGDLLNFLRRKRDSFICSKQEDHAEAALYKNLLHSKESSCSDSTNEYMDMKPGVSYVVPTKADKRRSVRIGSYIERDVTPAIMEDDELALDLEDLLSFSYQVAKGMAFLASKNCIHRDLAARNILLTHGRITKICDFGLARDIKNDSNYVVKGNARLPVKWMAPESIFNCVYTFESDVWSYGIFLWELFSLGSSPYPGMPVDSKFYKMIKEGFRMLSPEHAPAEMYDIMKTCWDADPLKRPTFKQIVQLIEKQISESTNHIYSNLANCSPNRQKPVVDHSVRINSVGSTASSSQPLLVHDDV
T1 sequence (P10721 with tags, fused parts or gaps DEL694-753/D816V): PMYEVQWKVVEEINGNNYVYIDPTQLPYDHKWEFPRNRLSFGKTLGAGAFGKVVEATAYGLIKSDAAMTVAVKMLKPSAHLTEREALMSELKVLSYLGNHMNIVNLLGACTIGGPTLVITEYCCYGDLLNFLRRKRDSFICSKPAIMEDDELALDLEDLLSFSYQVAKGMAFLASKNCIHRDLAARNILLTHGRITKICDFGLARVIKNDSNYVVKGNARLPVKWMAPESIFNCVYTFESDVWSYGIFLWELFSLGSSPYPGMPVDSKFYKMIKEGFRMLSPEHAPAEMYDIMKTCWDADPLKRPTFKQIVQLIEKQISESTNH

Row | Compound | IC50 (c-kit mutant D816V) | IC50 (c-kit kinase)
1 | C[C@H](NC(=O)N1CCN(c2ncnc3[nH]c(-c4ccc(F)cc4)cc23)CC1)c1cccc(OC(F)(F)F)c1 [P-0075, 4-[6-(4-fluorophenyl)-7H-pyrrolo[2,3-d]pyrimidin-4-yl]-N-[(1S)-1-[3-(trifluoromethoxy)phenyl]lethyl]piperazine-1-carboxamide] | 1 to 10 µM | 10 to 200 µM
2 | C[C@H](NC(=O)N1CCN(c2ncnc3[nH]c(-c4ccncc4)cc23)C[C@H]1C)c1ccc(Cl)cc1 [P-0059, (2R)-N-[(1S)-1-(4-chlorophenyl)ethyl]-2-methyl-4-[6-(4-pyridyl)-7H-pyrrolo[2,3-d]pyrimidin-4-yl]piperazine-1-carboxamide] | 0.0001 to 1 µM | 0.0001 to 1 µM
3 | COc1cc(-c2cc3c(N4CCN(C(=O)N[C@@H](C)c5ccc(F)cc5)[C@H](C)C4)ncnc3[nH]2)ccn1 [P-0695, (2R)-N-[(1S)-1-(4-fluorophenyl)ethyl]-4-[6-(2-methoxy-4-pyridyl)-7H-pyrrolo[2,3-d]pyrimidin-4-yl]-2-methyl-piperazine-1-carboxamide] | 0.0001 to 1 µM | 10 to 200 µM
4 | Cc1cc2c(-c3ccc(NS(C)(=O)=O)cc3)ncnc2[nH]1 [P-0379, N-[4-(6-methyl-7H-pyrrolo[2,3-d]pyrimidin-4-yl)phenyl]methanesulfonamide] | 1 to 10 µM | 10 to 200 µM
5 | C[C@H](NC(=O)N1CCN(c2ncnc3cc(C4=CC(C)(C)NC(C)(C)C4)sc23)CC1)c1cccc(Cl)c1 [P-0569, N-[(1S)-1-(3-chlorophenyl)ethyl]-4-[6-(2,2,6,6-tetramethyl-1,3-dihydropyridin-4-yl)thieno[3,2-d]pyrimidin-4-yl]piperazine-1-carboxamide] | 0.0001 to 1 µM | 10 to 200 µM
6 | CN(C)C(=O)c1cccc(-c2cc3c(N4CCN(C(=O)Nc5ccc(OC(F)(F)F)cc5)CC4)ncnc3[nH]2)c1 [P-0085, 4-[6-[3-(dimethylcarbamoyl)phenyl]-7H-pyrrolo[2,3-d]pyrimidin-4-yl]-N-[4-(trifluoromethoxy)phenyl]piperazine-1-carboxamide] | 0.0001 to 1 µM | 0.0001 to 1 µM
7 | COc1cccc([C@@H](C)NC(=O)N2CCN(c3ncnc4[nH]c(-c5ccc(F)cc5)cc34)C[C@H]2C)c1 [P-0032, (2R)-4-[6-(4-fluorophenyl)-7H-pyrrolo[2,3-d]pyrimidin-4-yl]-N-[(1R)-1-(3-methoxyphenyl)ethyl]-2-methyl-piperazine-1-carboxamide] | 1 to 10 µM | 10 to 200 µM
8 | Cc1ccc2sc(S(=O)(=O)Nc3ccc(-c4ncnc5[nH]c(C)cc45)cc3)cc2c1 [P-0308, 5-methyl-N-[4-(6-methyl-7H-pyrrolo[2,3-d]pyrimidin-4-yl)phenyl]benzothiophene-2-sulfonamide] | 1 to 10 µM | 10 to 200 µM
9 | O=S(=O)(Nc1ccc(Cl)cc1)c1ccc(-c2ncnc3[nH]c(-c4ccc(F)cc4)cc23)c(F)c1 [P-0327, N-(4-chlorophenyl)-3-fluoro-4-[6-(4-fluorophenyl)-7H-pyrrolo[2,3-d]pyrimidin-4-yl]benzenesulfonamide] | 0.0001 to 1 µM | 10 to 200 µM
10 | Cc1cc2c(-c3ccc(NS(=O)(=O)c4cccc(Cl)c4)cc3F)ncnc2[nH]1 [P-0357, 3-chloro-N-[3-fluoro-4-(6-methyl-7H-pyrrolo[2,3-d]pyrimidin-4-yl)phenyl]benzenesulfonamide] | 1 to 10 µM | 1 to 10 µM
11 | COc1cccc([C@H](C)NC(=O)N2C3CCC2CN(c2ncnc4cc(-c5ccc(F)cc5)sc24)C3)c1 [P-0567, 3-[6-(4-fluorophenyl)thieno[3,2-d]pyrimidin-4-yl]-N-[(1S)-1-(3-methoxyphenyl)ethyl]-3,8-diazabicyclo[3.2.1]octane-8-carboxamide] | 0.0001 to 1 µM | 10 to 200 µM
12 | O=C(NCc1ccc(F)cc1)N1CCN(c2ncnc3cc(C4CCNCC4)sc23)CC1 [P-0596, N-[(4-fluorophenyl)methyl]-4-[6-(4-piperidyl)thieno[3,2-d]pyrimidin-4-yl]piperazine-1-carboxamide] | 1 to 10 µM | 10 to 200 µM
13 | CCCNC(=O)N1CCN(c2ncnc3[nH]c(-c4cccnc4)cc23)CC1 [P-0218, N-propyl-4-[6-(3-pyridyl)-7H-pyrrolo[2,3-d]pyrimidin-4-yl]piperazine-1-carboxamide] | 1 to 10 µM | 10 to 200 µM
14 | Cc1cc2c(-c3ccc(NS(=O)(=O)c4cc(F)ccc4F)cc3F)ncnc2[nH]1 [P-0335, 2,5-difluoro-N-[3-fluoro-4-(6-methyl-7H-pyrrolo[2,3-d]pyrimidin-4-yl)phenyl]benzenesulfonamide] | 1 to 10 µM | 1 to 10 µM
15 | C[C@H](NC(=O)N1CC=C(c2ncnc3cc(-c4ccc(F)cc4)sc23)CC1)c1cccc(OC(F)F)c1 [P-0573, N-[(1S)-1-[3-(difluoromethoxy)phenyl]ethyl]-4-[6-(4-fluorophenyl)thieno[3,2-d]pyrimidin-4-yl]-3,6-dihydro-2H-pyridine-1-carboxamide] | 1 to 10 µM | 10 to 200 µM
16 | Cc1ccc(S(=O)(=O)Nc2ccc(-c3ncnc4cc(C5=CCN(C(=O)N6CCOCC6)CC5)sc34)cc2)cc1 [P-0590, 4-methyl-N-[4-[6-[1-(morpholine-4-carbonyl)-3,6-dihydro-2H-pyridin-4-yl]thieno[3,2-d]pyrimidin-4-yl]phenyl]benzenesulfonamide] | 0.0001 to 1 µM | 0.0001 to 1 µM
17 | COc1cccc([C@H](C)NC(=O)N2CCN(c3ncnc4[nH]c(C)cc34)C[C@H]2C)c1 [P-0683, (2R)-N-[(1S)-1-(3-methoxyphenyl)ethyl]-2-methyl-4-(6-methyl-7H-pyrrolo[2,3-d]pyrimidin-4-yl)piperazine-1-carboxamide] | 10 to 200 µM | 10 to 200 µM
18 | Cn1cc(-c2cc3c(C4=CCC(NS(=O)(=O)c5ccc(OC(F)(F)F)cc5)CC4)ncnc3[nH]2)cn1 (centres unmarked) [P-0285, N-[4-[6-(1-methylpyrazol-4-yl)-7H-pyrrolo[2,3-d]pyrimidin-4-yl]cyclohex-3-en-1-yl]-4-(trifluoromethoxy)benzenesulfonamide] | 0.0001 to 1 µM | 1 to 10 µM
19 | CS(=O)(=O)Nc1cccc(-c2cc3c(N4CCN(C(=O)Nc5ccc(OC(F)(F)F)cc5)CC4)ncnc3[nH]2)c1 [P-0119, 4-[6-[3-(methanesulfonamido)phenyl]-7H-pyrrolo[2,3-d]pyrimidin-4-yl]-N-[4-(trifluoromethoxy)phenyl]piperazine-1-carboxamide] | 1 to 10 µM | 0.0001 to 1 µM
20 | Cc1cc2c(C3=CCC(NS(=O)(=O)c4ccc(Cl)cc4)CC3)ncnc2[nH]1 (centres unmarked) [P-0729, 4-chloro-N-[4-(6-methyl-7H-pyrrolo[2,3-d]pyrimidin-4-yl)cyclohex-3-en-1-yl]benzenesulfonamide] | 0.0001 to 1 µM | 0.0001 to 1 µM
21 | COc1cc(-c2cc3c(N4CCN(C(=O)N[C@@H](C)c5cccc(OC(F)F)c5)C(C)(C)C4)ncnc3[nH]2)ccn1 [P-0012, N-[(1S)-1-[3-(difluoromethoxy)phenyl]ethyl]-4-[6-(2-methoxy-4-pyridyl)-7H-pyrrolo[2,3-d]pyrimidin-4-yl]-2,2-dimethyl-piperazine-1-carboxamide] | 0.0001 to 1 µM | 1 to 10 µM
22 | CCc1ccc(S(=O)(=O)NC2CCN(c3ncnc4[nH]c(-c5ccnc(OC)c5)cc34)CC2)cc1 [P-0727, 4-ethyl-N-[1-[6-(2-methoxy-4-pyridyl)-7H-pyrrolo[2,3-d]pyrimidin-4-yl]-4-piperidyl]benzenesulfonamide] | 0.0001 to 1 µM | 0.0001 to 1 µM
